Ends that are not written are not given here.

Assay [1] deals with wild-type PC-12 cells. As to the kind of experiment: haptotactic migration assay, PC-12 cells. In kind it is cell-based. Conditions: 1 ng/ml coating followed by matrigel/PDL, 100,000 cells. On the procedure:
NRPs were tested for migration-inducing/chemoattractive activity on mouse neural stem cells, EGF-dependent immortalized mouse neural stem cell line MEB5 and wild-type PC-12 cells in a haptotactic migration assay as described below.
Initial NRP Coating. Control wells of Transwell plates (Coming) with 12 μm pore size were coated in 1.5 ml of the BSA/PBS vehicle. Remaining plates were coated using various concentrations of NRPs ranging between 1-100 ng/ml (prepared in PBS containing 10 ug/ml BSA). The plates were then incubated at 37° C. for 1 hr to coat. Wells were then rinsed 2× with 1 ml sterile PBS.
Laminin ([…]) for MEB-5 cells, PDL (50 μg/ml)+Matrigel for mouse primary stem cells and fibronectin (25 ug/ml)+matrigel for PC-12 cells were used as extracellular matrix (ECM) coating for the cells. All ECM compounds were diluted in PBS. 1.5 ml of the ECM per well was incubated for 2 hrs at room temperature. The wells were then rinsed once with Iml serum-free media (e.g. NB/B27) followed by 1 ml PBS wash.
A 5 ug/mL PDL/PLL mixture (in PBS) was used to coat inserts. Subsequently the inserts were rinsed with MilliQ water. […]

Assay [2] relates to embryonic cortical cells. Nature of the assay: haptotactic migration assay, cortical cells. In kind it is cell-based, rat. Conditions: 1 day in vitro. The source says:
To test the cell adhesion and neuronal migration inducing properties of the NRPs a haptotactic migration cell assay was developed (Lu et al.,2001). For this purpose Transwell® cell culture dishes (Costar) with fitting inserts having pores therein with a 12 μm pore size were used to cultivate striatal and neocortical cells. In general, a test agent was adhered to the surface of a culture dish and an insert having pores was placed in culture medium over but not in contact with the surface of the culture dish. Test cells were placed in the inserts, and any cells migrating through the pores and onto the surface of the culture dish reflected chemattractiveness by the test molecule. Under these conditions, the surface of the culture dish would, over time, release some NRP molecules into the culture medium. It can be appreciated that the concentration of “free” NRP would be greater nearer the surface of the culture dish than at distances farther away from the culture dish, thereby creating a gradient in NRP concentration. […] By counting the number and morphology of such migrant cells, effects of NRPs on neuronal migration and differentiation can be evaluated. […]
For seeding striatal cells, 1.5 ml of Neurobasal/B27 medium was put into the culture dishes and 0.5 ml of NeurobasaVB27 medium was put into the insert. The assay was ready for cell seeding. […]

Assay [3] has as its system OTCs of rat embryonic forebrain. As to the kind of experiment: embryonic forebrain OTC migration assay (medial ganglionic eminence to cortical anlage). The class given is cell-based. On the procedure: OTCs of rat embryonic forebrain were prepared as described. Briefly, pregnant rats at E17 gestation were sacrificed, the fetuses rapidly removed. Coronal slices of the forebrain were cut at 400 μm thickness and placed onto millicell PICM ORG50 membranes (Millipore) in 3 cm Petri dishes containing 1 ml of DMEMI/F12, 6.5 mg/ml glucose, 0.1 mM glutamine and 10% FCS for 34 hrs. Afterwards the medium was exchanged to 1 ml Neurobasal/B27, 6.5 mg/ml glucose, 0.1 mM glutamine, to which 10 μl PBS, NRP, or SDF-1 were added for the indicated concentrations and a small DiI (1,1′-dioctodecycyl-3,3,3′3-tetramethylindocarbocyanine) crystal of uniform size was placed in the medial ganglionic eminence (n=10-15) under a stereomicroscope. After 24 hrs cultivation the total number or migrated neurons dispersed in the ganglionic eminence and cortex were counted under an inverted fluorescent microscope.

With “SEPEARRAPGRKGGVVCASLAADW-NH2 [NRP-7 segment SW, 24-mer form of mouse NRP-7]”, the “more PC-12 cells migrated compared with BSA vehicle” value in assay [1] came to 333%. For the same substance, the “more neurons migrated to the culture dish bottom compared to BSA control” value in assay [2] (15 ng immobilized, 1 pg/ml in medium) stood at 49.8%. In assay [2] (0.1 and 1 μg/ml coating in BSA), the “number of cells with neurite outgrowth” value is listed as “significantly increased”. Besides, in assay [3], the “increase in number of migrating neuronal precursor cells” value was 5 fold and the optimum dose is listed as 1 nM.
